Test results reported in patent EP4755393A1, “USE OF PROTON PUMP REGULATOR IN PREPARATION OF DRUG” (Shanghai Quietd Biotechnology Co., Ltd., priority 2023, dated 2025).
Entries after “also recorded” stand apart in the source; their conditions may differ. Ends that are not written are not given here.

Key:
[1] = test system: DIR protein; assay: Co-immunoprecipitation of QD202-Biotin peptide with Flag-His-DIR (HEK 293 lysate, western blot and dot blot); assay type: binding, human; settings: QD202-Biotin peptide added to lysate of Flag-His-DIR transfected HEK 293; anti-Biotin IP; FIG. 14
Experimental: The Flag-His-DIR expression plasmid was transfected into HEK 293, and cell proteins were extracted 48 h after transfection. Table 2: Plasmid sequences
Protein extraction was performed using Pierce RIPA lysis buffer, 1000 µL of Pierce RIPA lysis buffer containing protease inhibitors was added. Cells were collected and transferred to a clean 1.5 mL EP tube using a cell scraper. After mixing for 1 h on a rotary mixer at 4°C, the cells were centrifuged at 13,000 rpm at 4°C for 10 min to remove cell debris. The supernatant of the cell lysate was divided into two aliquots, each 500 µL, and 10 µL of QD202-Biotin peptide at a concentration of 1 mM was added to one aliquot. From each of the two aliquots, 30 µL of the supernatant was taken and mixed with 10 µL of 4× loading buffer. The mixture was boiled at 100°C for 5 min and then stored frozen at -20°C. For the remaining 470 µL of protein lysate, 2 µL of the antibody (Anti-Biotin, Vector, sp-3000) was added; the mixture was incubated overnight (about 16-18 h) on a rotary shaker at 4°C. 30 µL of Protein G Sepharose beads (Roche, 11243233001) were placed in an EP tube and washed three times with Pierce RIPA lysis buffer. […] The protein was detected by Western blot and dot blot methods (DYKDDDDK-Tag (3B9) mAb, Abmart, M20008; Anti-Biotin, Vector, sp-3000).

[2] = test system: homozygous DIR-Ki mice; assay: Novel object recognition test in DIR-Ki mice; assay type: in vivo; settings: intravenous, 7 consecutive days, FIG. 15
Experimental: Thirty homozygous DIR-Ki mice were divided into three groups: the control group (HO+PBS), the QD202 1 mg/kg group (HO+QD202 1 mpk), and the QD202 5 mg/kg group (HO+QD202 5 mpk). After 7 consecutive days of intravenous administration in the QD202-treated groups, the novel object recognition test was initiated.
Square PVC plastic box (dimensions: 25 cm × 25 cm × 30 cm), two identical size 1 batteries, one plastic toy of the same height as the batteries, experimental observation box, camera, and video recording software
On the day of the experiment, the mice were allowed to acclimatize to the experimental room for 30 min in advance. The test was divided into an acclimation period and a testing period.
Familiarization phase: Two identical batteries were placed 5 cm away from a box wall, with a 5 cm gap between the two batteries. The mice were placed in the center of the area and allowed to explore freely for 10 min. […]
Testing period: A toy with size and height similar to those of the battery was randomly used to replace one battery and placed in the same position as the original battery. […] The entire process was recorded using a camera. […] After the experiment, the time taken for the mice to explore novel and familiar objects in the video was counted manually, and the time recognition index of the novel objects was calculated. […]

[3] = test system: Male SD rats; settings: rat, in vivo
[4] = test system: HT22 cells; assay: Quantitative detection of ROS (DCFH-DA) in the oxygen-glucose deprivation (OGD) cell model; assay type: cell-based, Mouse; settings: OGD 16 h, 24 h reoxygenation, OGD plus vehicle = 100%, mean ± standard deviation
Experimental: Cell culture: Mouse hippocampal HT22 cells were cultured in DMEM and 10% serum at 37°C in a 5% CO2 incubator.
Oxygen-glucose deprivation (OGD) cell model: HT22 cells were seeded at a density of about 1 ×10^5 into 96-well plates and cultured for 24 h in a 37°C incubator with 5% CO2/95% air in DMEM and 10% serum. After placing HT22 cells in glucose-free medium, they were transferred to a sealed container containing a 5% CO2/95% N2 mixture and incubated at 37°C for 16 h. The glucose-free medium was then replaced with a normal medium containing glucose, and the mixture was incubated for 24 h in a 37°C incubator containing 5% CO2/95% air for reoxygenation.
Experimental grouping: Normally cultured HT22 cells were used as the control group. HT22 cells subjected to OGD were reoxygenated in normal culture medium and treated separately with vehicle, QD202 (0.1 µM, 1 µM, 5 µM), and the ROS scavenger edaravone (200 µM). After 24 h of reoxygenation, quantitative detection of ROS was performed.
Quantitative detection of ROS: Reactive oxygen species were detected using the Beyotime reactive oxygen species detection kit and the fluorescent probe DCFH-DA. DCFH-DA was diluted 1:1000 with serum-free culture medium to a final concentration of 10 µM. The culture medium was removed and the diluted DCFH-DA was added. The cells were then incubated in a 37°C cell culture incubator for 20 min. The cells were washed three times with serum-free cell culture medium to thoroughly remove any DCFH-DA that had not entered the cells. Observation was performed under a fluorescence microscope, followed by quantification of the average fluorescence intensity using Image J software.
Data analysis: Three parallel experiments were performed. The average fluorescence intensity of the OGD plus vehicle group was set as the standard value of 100% for normalization of the fluorescence intensity of cells in each group. Data were expressed as mean ± standard deviation, and […] tests were performed on the data of each group using One-Way ANOVA.

Substance: QD202: Polypeptide synthesized according to the amino acid sequence set forth in SEQ ID NO: 1; ATP6V1B2 regulator / DIR regulator (YGRKKRRQRRRSPVDVVCS; not fully specified)
- binding to the DIR protein (co-immunoprecipitation) [1]: can bind
- novel object recognition index ([2]; 1.0 mg/kg): significantly improved
- novel object recognition index ([2]; 5.0 mg/kg): significantly improved
- infarct volume [3]: lower than that of the Model + QD202 placebo group, with a statistical difference (p<0.05); also recorded: lower than that of the Model + QD202 placebo group, with extremely significant statistical differences (p<0.001)
- inhibition rate of ROS ([4]; 0.1 µM): 17.55±12.95%
- inhibition rate of ROS ([4]; 1 µM): 60.63±8.27%
- inhibition rate of ROS ([4]; 5 µM): 70.09±2.84%
